Measured values reported in paper PMC5190008, “BO-1055, a novel DNA cross-linking agent with remarkable low myelotoxicity shows potent activity in sarcoma models” (Oncotarget, 2016).

What was measured:
[1] = tested on: U2OS cells; test: Alamar Blue cell proliferation assay; format: cell-based; settings: Homo sapiens, 72 h drug exposure
Description: (§1) AlamarBlue® assay (Invitrogen, Carlsbad, CA, USA) was performed to evaluate anti-proliferative activity of the drugs in cell lines and primary cells. Cells were plated in 96-well plates ([…] in 200 μL of medium). After 12 h, one of the previously mentioned drugs was added to each well at the specified concentration and incubated for 72 h. At the end of the incubation period, 20 μL of stock solution (0.312 mg/mL) of the Alamar Blue was added to each well. The absorbance was measured using the Synergy H1 hybrid multi-mode microplate reader (BioTek, USA). The drug effect was quantified as the percentage of control absorbance at 540 nm and 585 nm. Optical density was determined for 3 replicates per treatment condition and cell proliferation in drug-treated cells was normalized to their respective controls. All experiments were performed in triplicate.
(§2) Data are presented as mean±S.E.M. of at least three independent experiments done in triplicate. The comparison of means between treated and control mice was performed using two-tailed T-test or ANOVA (for more than two groups) as implemented in GraphPad Prism (version 4; GraphPad Software). Graphpad Prism software was used to plot concentration-effect curves and determine the drug concentration that inhibited the growth of cell lines by 50% compared to the control (IC50). A p-value of 0.05 or less was considered significant. Combination index (CI) values, as calculated by CompuSyn software (Chou and Martin, 2007), were used to evaluate the interaction between BO-1055 and a second drug (Topotecan, SN38, Doxorubicin or PU-H71). The Chou-Talalay method was used to quantify the synergism (CI < 1), additive effect (CI = 1) and antagonism (CI > 1) of various drug combinations.

[2] = tested on: TC32 cells; test: Alamar Blue cell proliferation assay; format: cell-based; settings: Homo sapiens, TC-32; TC32, 72 h drug exposure
Description: as §1, §2

[3] = tested on: OSA cells; test: Alamar Blue cell proliferation assay; format: cell-based; settings: Homo sapiens, 72 h drug exposure
Description: as §1, §2

[4] = tested on: H526 cells; test: Alamar Blue cell proliferation assay; format: cell-based; settings: Homo sapiens, NCI-H526; H526 (small cell lung cancer)
Description: as §1, §2

[5] = tested on: RH30 cells; test: Alamar Blue cell proliferation assay; format: cell-based; settings: Homo sapiens; RH30, 72 h drug exposure
Description: as §1, §2

[6] = tested on: osteosarcoma cell lines; test: Alamar Blue cell proliferation assay; format: cell-based; settings: Homo sapiens
Description: as §1, §2

[7] = tested on: SAOS cells; test: Alamar Blue cell proliferation assay; format: cell-based; settings: Homo sapiens, 72 h drug exposure
Description: as §1, §2

[8] = tested on: A204 cells; test: Alamar Blue cell proliferation assay; format: cell-based; settings: Homo sapiens; A204, 72 h drug exposure
Description: as §1, §2

[9] = tested on: DSRCT cell lines; test: Alamar Blue cell proliferation assay; format: cell-based; settings: Homo sapiens
Description: as §1, §2

[10] = tested on: A673 cells; test: Alamar Blue cell proliferation assay; format: cell-based; settings: Homo sapiens; A673, 72 h drug exposure
Description: as §1, §2

[11] = tested on: cord blood CD34+ cells; test: Comet assay; format: cell-based, human; settings: 3h
Description: We used comet assay, which includes single cell gel electrophoresis to assess DNA breaks when exposed to radiation or DNA damaging agents. […] Olive moment (micrometers), a product of tail DNA% and the distance between the centroids of head and tail, is an accurate parameter of DNA damage. […] Gamma-H2AX (γH2AX) phosphorylation is the initial step in DNA damage response following double stranded breaks and is responsible for recruiting DNA repair proteins.
Comet assay was performed according to the protocol described earlier. Cells were treated with BO-1055 at 2μM concentration for 3h, or immediately after exposure to 8Gy radiation after which they were isolated and mixed with 1% low melting point agarose in a tube. The cells in agarose were transferred to slides coated with normal melting point agarose. The agarose-immobilized cells were lysed in alkaline solution and the agarose trapped DNA was electrophoresed. DNA was stained with ethidium bromide and image acquisition was done immediately. DNA damage quantification was performed using OpenComet v1.3, an open-source software plugin in Image J 1.47v software (NIH, USA) for automated analysis. Olive moment, which is the product of tail DNA% and the distance between the intensity-weighted centroids of head and tail was taken from the output for analysis.

[12] = In vivo toxicity testing: complete blood counts, renal and liver function tests; settings: C57 healthy mice
Text: However myelotoxicity has been a challenge, resulting in delay in treatment cycles and infectious complications. Hematopoietic toxicity was partly alleviated by the administration of G-CSF [32] and allowed dose-escalation. […] Overcoming hematopoietic and organ toxicities will allow us to administer chemotherapy at a higher dose and at a shorter interval, which can potentially result in better cure rates. […] This was also seen in the in vivo toxicity study in C57 healthy mice where hematologic toxicity was not observed at day 10 after 5 doses of BO-1055 at 30mg/kg/dose (Supplementary Table 1). […]
Supplementary table 1. Complete blood counts, renal and […] function tests in C57 healthy mice (n=4 per group) in control and treatment groups. Treatment group received BO--1055 at 30mg/kg/dose on days […]
Control group BO--1055 group Control group BO--1055 group baseline baseline day 10 day 10
Mean SD Mean SD Mean SD Mean SD

[13] = 30mg/kg/dose on days 1,3,5,8 and 10, day 10, mean, n=4

Question: With `CN(C)CCNC(=O)c1cccc(NC(=O)Nc2ccc(N(CCCl)CCCl)cc2)c1` [BO-1055] as the molecule, how does the IC50 [1] read?
Answer: > 10000 nM

Question: And the IC50 [2]?
Answer: 600 nM

Question: And the IC50 [3]?
Answer: > 10000 nM

Question: What about the IC50 [4] of the same molecule?
Answer: 250 nM

Question: What about the IC50 [5] of the same molecule?
Answer: 240 nM

Question: And the IC50 [6]?
Answer: > 10000 nM

Question: What about the IC50 [7] of the same molecule?
Answer: > 10000 nM

Question: What about the IC50 [8] of the same molecule?
Answer: 80 nM

Question: And the IC50 [9]?
Answer: 2000 to 3000 nM

Question: And the IC50 [10]?
Answer: 520 nM

Question: And the “olive moment relative to radiation (XRT, 8Gy)” value [11]?
Answer: relatively less

Question: And the ALT [12, 13]?
Answer: 89.50 U/L

Question: And the AST [12, 13]?
Answer: 74.25 U/L

Question: What about the BASO [12, 13] of the same molecule?
Answer: 0.45%

Question: And the “BASO#” value [12, 13]?
Answer: 0.02 K/uL

Question: And the BUN [12, 13]?
Answer: 24.50 mg/dL

Question: What about the BUN/CREA ratio [12, 13] of the same molecule?
Answer: 125.40

Question: And the CREA [12, 13]?
Answer: 0.20 mg/dL

Question: What about the DBIL [12, 13] of the same molecule?
Answer: 0.00 mg/dL

Question: What about the EO [12, 13] of the same molecule?
Answer: 2.93%

Question: And the “EO#” value [12, 13]?
Answer: 0.13 K/uL

Question: And the GLU [12, 13]?
Answer: 166.00 mg/dL

Question: What about the HCT [12, 13] of the same molecule?
Answer: 46.30%

Question: What about the HGB [12, 13] of the same molecule?
Answer: 13.08 g/dL

Question: And the IBIL [12, 13]?
Answer: 0.13 mg/dL

Question: What about the LYMPH [12, 13] of the same molecule?
Answer: 51.63%

Question: What about the “LYMPH#” value [12, 13] of the same molecule?
Answer: 2.90 K/uL

Question: What about the MCH [12, 13] of the same molecule?
Answer: 14.40 pg

Question: And the MCHC [12, 13]?
Answer: 28.28 g/dL

Question: And the MCV [12, 13]?
Answer: 51.03 fL

Question: What about the MONO [12, 13] of the same molecule?
Answer: 7.80%

Question: What about the “MONO#” value [12, 13] of the same molecule?
Answer: 0.39 K/uL

Question: What about the MPV [12, 13] of the same molecule?
Answer: 6.38 fL

Question: What about the NEUT [12, 13] of the same molecule?
Answer: 37.20%

Question: And the “NEUT#” value [12, 13]?
Answer: 1.90 K/uL

Question: What about the PDW [12, 13] of the same molecule?
Answer: 7.40 fL

Question: What about the PLT [12, 13] of the same molecule?
Answer: 1108.25 K/uL

Question: And the RBC [12, 13]?
Answer: 9.08 M/uL

Question: And the RDW-CV [12, 13]?
Answer: 23.18%

Question: What about the RDW-SD [12, 13] of the same molecule?
Answer: 32.48 fL

Question: What about the RET [12, 13] of the same molecule?
Answer: 4.72%

Question: And the “RET#” value [12, 13]?
Answer: 426.88 K/uL

Question: And the TBIL [12, 13]?
Answer: 0.23 mg/dL

Question: And the TP [12, 13]?
Answer: 3.77 g/dL

Question: And the “WBC#” value [12, 13]?
Answer: 5.34 K/uL

Question: What about the “change in hematocrit, platelet count or neutrophil count” value ([12]; day 10) of the same molecule?
Answer: did not reveal a significant change

Question: And the hematologic toxicity ([12]; day 10 after 5 doses at 30mg/kg/dose)?
Answer: not observed
